Data: patent publication US20250228239A1, “MOLECULES HAVING PESTICIDAL UTILITY, AND INTERMEDIATES, COMPOSITIONS, AND PROCESSES, RELATED THERETO” (priority 2024, published 2025)
Where two headings read alike, the source gives them in different places.

Assays:
Format in all cases: in vivo
[1] = test system: Beet Armyworm (Spodoptera exigua, LAPHEG); test: Bioassays on Beet Armyworm (BAW), 128-well diet tray assay; details: Spodoptera exigua; for mortality at 50 µg/cm2: 168 h, second instar larvae, 50 μg/cm^2 of test molecule on artificial diet, 25° C., five to seven days, average of eight wells, read-out: BAW % Control (or Mortality) rating
Summary of the method: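 One to five second-instar larvae per well on artificial diet surface-treated with 50 μg/cm^2 test molecule (applied in 90:10 acetone-water, dried), eight wells per compound. Trays held vented at 25° C., 14:10 light-dark for five to seven days; percent mortality averaged over the eight wells.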

[2] = test system: Cabbage Looper (Trichoplusia ni, TRIPNI); test: Bioassays on Cabbage Looper (CL), 128-well diet tray assay; details: Trichoplusia ni; for mortality at 50 µg/cm2: 168 h, second instar larvae, 50 μg/cm^2 of test molecule on artificial diet, 25° C., five to seven days, average of eight wells, read-out: CL % Control (or Mortality) rating
Summary of the method: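 Test molecule was dissolved in 90:10 acetone-water, applied to artificial diet at 50 μg/cm^2 and allowed to dry. Second-instar larvae were then added, one to five per well, and trays held at 25° C for five to seven days before mortality was scored and averaged.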

[3] = test system: Yellow Fever Mosquito (Aedes aegypti, AEDSAE); details: for YFM rating: Table ABC / ABC-DP rating; for YFM % Control (or Mortality) rating: about 1 day-old larvae, 4000 ppm master solution diluted with 90:10 water/acetone, 15 μL per well plus 220 μL larval mixture, 3 days
Experimental: Certain molecules disclosed in this document were tested against YFM using procedures described in the following paragraph. In the reporting of the results, the “GPA & YFM Rating Table” was used (See Table Section).
Master plates containing 400 μg of a molecule dissolved in 100 μL of dimethyl sulfoxide (DMSO) (equivalent to a 4000 ppm solution) are used. A master plate of assembled molecules contains 15 μL per well. To this plate, 135 μL of a 90:10 water/acetone mixture is added to each well. A robot (Biomek® NXP Laboratory Automation Workstation) is programmed to dispense 15 μL aspirations from the master plate into an empty 96-well shallow plate (“daughter” plate). There are 6 reps (“daughter” plates) created per master. The created “daughter” plates are then immediately infested with YFM larvae.
The day before plates are to be treated, mosquito eggs are placed in Millipore water containing liver powder to begin hatching (4 g into 400 mL). After the “daughter” plates are created using the robot, they are infested with 220 μL of the liver powder/larval mosquito mixture (about 1 day-old larvae). After plates are infested with mosquito larvae, a non-evaporative lid is used to cover the plate to reduce drying. Plates are held at room temperature for 3 days prior to grading. After 3 days, each well is observed and scored based on mortality. The results are indicated in the table entitled “Table ABC: Biological Results” (See Table Section).

[4] = Beet Armyworm, rating class, read-out: BAW
[5] = Cabbage Looper, rating class, read-out: CL
[6] = Yellow Fever Mosquito, rating class
[7] = Beet Armyworm, Table ABC / ABC-DP rating, read-out: BAW rating
[8] = Cabbage Looper, Table ABC / ABC-DP rating, read-out: CL rating
[9] = Table ABC: Biological Results, species BAW, read-out: BAW
[10] = Table ABC: Biological Results, species CL, read-out: CL
[11] = Table ABC: Biological Results, species YFM

CC(C)COC(C)C(=O)Nc1c(F)ccc(NC(=O)c2cc(NC(=O)[C@H]3[C@H](c4ccc(F)c(C(F)(F)F)c4)C3(Cl)Cl)ccc2Cl)c1F (stereo partly drawn) [F1746, 2-Chloro-5-((1R,3R)-2,2-dichloro-3-(4-fluoro-3-(trifluoromethyl)phenyl)cyclopropane-1-carboxamido)-N-(2,4-difluoro-3-(2-isobutoxypropanamido)phenyl)benzamide]
pest or weed control at 50 µg/cm2 [1, 4]: 50 to 100% | pest or weed control at 50 µg/cm2 [2, 5]: 50 to 100% | YFM [3, 6]: A (80–100)

O=C(NCCC(F)(F)F)c1cc(NC(=O)[C@H]2[C@H](c3ccc(F)c(Cl)c3)C2(Cl)Cl)cc(C(F)(F)F)c1Cl (relative stereo) [F2055, trans-2-Chloro-5-(2,2-dichloro-3-(3-chloro-4-fluorophenyl)cyclopropane-1-carboxamido)-3-(trifluoromethyl)-N-(3,3,3-trifluoropropyl)benzamide]
pest or weed control at 50 µg/cm2 [1, 7]: 50 to 100% | pest or weed control at 50 µg/cm2 [2, 8]: 50 to 100% | YFM rating ([3]; Yellow Fever Mosquito): A (80–100)

CCNC(=O)c1cc(NC(=O)[C@H]2[C@H](c3ccc(F)c(Cl)c3)C2(Cl)Cl)cc(C)c1F (relative stereo) [F2029, trans-5-(2,2-Dichloro-3-(3-chloro-4-fluorophenyl)cyclopropane-1-carboxamido)-N-ethyl-2-fluoro-3-methylbenzamide]
pest or weed control at 50 µg/cm2 [1, 7]: 50 to 100% | pest or weed control at 50 µg/cm2 [2, 8]: 50 to 100% | YFM rating ([3]; Yellow Fever Mosquito): A (80–100)

Nc1cc(NC(=O)c2cc(NC(=O)[C@H]3[C@H](c4ccc(Cl)c(Cl)c4)C3(Cl)Cl)ccc2Cl)c(F)cc1F [DP5, N-(5-Amino-2,4-difluorophenyl)-2-chloro-5-((1R,3R)-2,2-dichloro-3-(3,4-dichlorophenyl)cyclopropane-1-carboxamido)benzamide]
mortality at 50 µg/cm2 [1]: 50 to 100% | pest or weed control at 50 µg/cm2 [1, 7]: 50 to 100% | mortality at 50 µg/cm2 [2]: 50 to 100% | pest or weed control at 50 µg/cm2 [2, 8]: 50 to 100% | YFM rating ([3]; Yellow Fever Mosquito): A (80–100) | YFM % Control (or Mortality) rating [3]: A (80–100)

O=C(COC(F)(F)C(F)(F)F)Nc1c(F)ccc(NC(=O)c2cc(NC(=O)[C@H]3[C@H](c4ccc(F)c(C(F)(F)F)c4)C3(Cl)Cl)ccc2Cl)c1F [F1808, 2-Chloro-5-((1R,3R)-2,2-dichloro-3-(4-fluoro-3-(trifluoromethyl)phenyl)cyclopropane-1-carboxamido)-N-(2,4-difluoro-3-(2-(perfluoroethoxy)acetamido)phenyl)benzamide]
pest or weed control at 50 µg/cm2 [1, 7]: 50 to 100% | pest or weed control at 50 µg/cm2 [2, 8]: 50 to 100% | YFM rating ([3]; Yellow Fever Mosquito): B (More than 0 – Less than 80)

CC(=O)CNC(=O)c1cc(NC(=O)[C@H]2[C@H](c3cc(Cl)cc(Cl)c3)C2(Cl)Cl)cc(F)c1Cl (relative stereo) [F2090, trans-2-Chloro-5-(2,2-dichloro-3-(3,5-dichlorophenyl)cyclopropane-1-carboxamido)-3-fluoro-N-(2-oxopropyl)benzamide]
pest or weed control at 50 µg/cm2 [1, 7]: 50 to 100% | pest or weed control at 50 µg/cm2 [2, 8]: 50 to 100% | YFM rating ([3]; Yellow Fever Mosquito): A (80–100)

CC(C)(C)OC(=O)Nc1c(F)ccc(NC(=O)c2cc(NC(=O)[C@H]3[C@H](c4ccc(F)c(C(F)(F)F)c4)C3(Cl)Cl)ccc2Cl)c1F (relative stereo) [F1078, trans-tert-Butyl-(3-(2-chloro-5-(2,2-dichloro-3-(4-fluoro-3-(trifluoromethyl)phenyl)cyclopropane-1-carboxamido)benzamido)-2,6-difluorophenyl)carbamate]
pest or weed control at 50 µg/cm2 [1, 9]: 50 to 100% | pest or weed control at 50 µg/cm2 [2, 10]: 50 to 100% | YFM [3, 11]: A (80–100)

Nc1c(F)ccc(NC(=O)c2cc(NC(=O)[C@H]3[C@H](c4ccc(Br)cc4)C3(Cl)Cl)ccc2Cl)c1F (relative stereo) [F1591, trans-N-(3-Amino-2,4-difluorophenyl)-5-(3-(4-bromophenyl)-2,2-dichlorocyclopropane-1-carboxamido)-2-chlorobenzamide]
pest or weed control at 50 µg/cm2 [1, 4]: 50 to 100% | pest or weed control at 50 µg/cm2 [2, 5]: 50 to 100% | YFM [3, 6]: A (80–100)

CO[C@H](C)C(=O)Nc1c(F)ccc(NC(=O)c2cc(NC(=O)[C@H]3[C@H](c4ccc(F)c(C(F)(F)F)c4)C3(Cl)Cl)ccc2Cl)c1F [F1689, 2-Chloro-5-((1R,3R)-2,2-dichloro-3-(4-fluoro-3-(trifluoromethyl)phenyl)cyclopropane-1-carboxamido)-N-(2,4-difluoro-3-((R)-2-methoxypropanamido)phenyl)benzamide]
pest or weed control at 50 µg/cm2 [1, 4]: 50 to 100% | pest or weed control at 50 µg/cm2 [2, 5]: 50 to 100% | YFM [3, 6]: B (More than 0 – Less than 80)

CC(=O)OCN(C(=O)c1cc(NC(=O)[C@H]2[C@H](c3cc(Cl)cc(Cl)c3)C2(Cl)Cl)ccc1Cl)c1ccc(F)cc1C#N (relative stereo) [F1084, trans-(2-Chloro-N-(2-cyano-4-fluorophenyl)-5-(2,2-dichloro-3-(3,5-dichlorophenyl)cyclopropane-1-carboxamido)benzamido)methyl acetate]
pest or weed control at 50 µg/cm2 [1, 9]: 50 to 100% | pest or weed control at 50 µg/cm2 [2, 10]: 50 to 100% | YFM [3, 11]: A (80–100)

O=C(CC1CC1)Nc1c(F)ccc(NC(=O)c2cc(NC(=O)[C@H]3[C@H](c4ccc(F)c(C(F)(F)F)c4)C3(Cl)Cl)ccc2Cl)c1F [F1682, 2-Chloro-N-(3-(2-cyclopropylacetamido)-2,4-difluorophenyl)-5-((1R,3R)-2,2-dichloro-3-(4-fluoro-3-(trifluoromethyl)phenyl)cyclopropane-1-carboxamido)benzamide]
pest or weed control at 50 µg/cm2 [1, 4]: 50 to 100% | pest or weed control at 50 µg/cm2 [2, 5]: 50 to 100% | YFM [3, 6]: A (80–100)

CNC(=O)CCNC(=O)c1cc(NC(=O)[C@H]2[C@H](c3cc(Cl)cc(Cl)c3)C2(Cl)Cl)ccc1Cl (relative stereo) [F2070, trans-2-Chloro-5-(2,2-dichloro-3-(3,5-dichlorophenyl)cyclopropane-1-carboxamido)-N-(3-(methylamino)-3-oxopropyl)benzamide]
pest or weed control at 50 µg/cm2 [1, 7]: 50 to 100% | pest or weed control at 50 µg/cm2 [2, 8]: 50 to 100% | YFM rating ([3]; Yellow Fever Mosquito): A (80–100)

CC(=O)Nc1ccc(F)c(NC(=O)c2cc(NC(=O)[C@H]3[C@H](c4ccc(F)c(C(F)(F)F)c4)C3(Cl)Cl)ccc2Cl)c1F [F1454, N-(3-Acetamido-2,6-difluorophenyl)-2-chloro-5-((1R,3R)-2,2-dichloro-3-(4-fluoro-3-(trifluoromethyl)phenyl)cyclopropane-1-carboxamido)benzamide]
pest or weed control at 50 µg/cm2 [1, 4]: 50 to 100% | pest or weed control at 50 µg/cm2 [2, 5]: 50 to 100% | YFM [3, 6]: A (80–100)

O=C(NNc1ccc(OC(F)(F)F)cc1)c1cc(NC(=O)[C@H]2[C@H](c3cc(Cl)cc(Cl)c3)C2(Cl)Cl)ccc1Cl (relative stereo) [F2564, trans-2,2-Dichloro-N-(4-chloro-3-(2-(4-(trifluoromethoxy)phenyl)hydrazine-1-carbonyl)phenyl)-3-(3,5-dichlorophenyl)cyclopropane-1-carboxamide]
mortality at 50 µg/cm2 [1]: 50 to 100% | pest or weed control at 50 µg/cm2 [1, 7]: 50 to 100% | mortality at 50 µg/cm2 [2]: 50 to 100% | pest or weed control at 50 µg/cm2 [2, 8]: 50 to 100% | YFM rating ([3]; Yellow Fever Mosquito): A (80–100) | YFM % Control (or Mortality) rating [3]: A (80–100)

O=C(NNc1ccc(C(F)(F)F)cc1)c1cc(NC(=O)[C@H]2[C@H](c3cc(Cl)cc(Cl)c3)C2(Cl)Cl)ccc1Cl (relative stereo) [F2571, trans-2,2-Dichloro-N-(4-chloro-3-(2-(4-(trifluoromethyl)phenyl)hydrazine-1-carbonyl)phenyl)-3-(3,5-dichlorophenyl)cyclopropane-1-carboxamide]
YFM rating ([3]; Yellow Fever Mosquito): A (80–100) | YFM % Control (or Mortality) rating [3]: A (80–100)

CCNC(=O)c1cc(NC(=O)[C@H]2[C@H](c3ccc(F)c(C(F)(F)F)c3)C2(Cl)Cl)c(F)cc1Cl [F2083, 2-Chloro-5-((1R,3R)-2,2-dichloro-3-(4-fluoro-3-(trifluoromethyl)phenyl)cyclopropane-1-carboxamido)-N-ethyl-4-fluorobenzamide]
pest or weed control at 50 µg/cm2 [2, 8]: 50 to 100% | YFM rating ([3]; Yellow Fever Mosquito): B (More than 0 – Less than 80)

CCNC(=O)c1cc(NC(=O)[C@H]2[C@H](c3ccc(F)c(Cl)c3)C2(Cl)Cl)cc(F)c1OC (relative stereo) [F2057, trans-5-(2,2-Dichloro-3-(3-chloro-4-fluorophenyl)cyclopropane-1-carboxamido)-N-ethyl-3-fluoro-2-methoxybenzamide]
pest or weed control at 50 µg/cm2 [2, 8]: 50 to 100% | YFM rating ([3]; Yellow Fever Mosquito): A (80–100)
